Experiment [1] addresses T1, Adenosine receptor A3 (Homo sapiens) (UniProt P0DMS8).
T1 sequence (whole entry): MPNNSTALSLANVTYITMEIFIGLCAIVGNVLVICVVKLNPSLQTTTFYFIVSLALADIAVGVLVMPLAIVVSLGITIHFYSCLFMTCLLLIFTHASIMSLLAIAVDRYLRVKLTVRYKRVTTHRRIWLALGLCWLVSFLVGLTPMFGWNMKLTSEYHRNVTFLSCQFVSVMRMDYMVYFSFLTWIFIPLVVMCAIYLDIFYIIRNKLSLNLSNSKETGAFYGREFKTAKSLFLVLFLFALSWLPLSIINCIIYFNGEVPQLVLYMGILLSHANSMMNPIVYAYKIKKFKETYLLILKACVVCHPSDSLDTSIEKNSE
As to the kind of experiment: Binding affinity to human A3AR at 50 nM incubated for 1 hr by SDS-PAGE analysis.

Experiment [2] concerns the target T1, Adenosine receptor A3 (Homo sapiens). Briefly: Binding affinity to human A3AR expressed in eosinophil incubated for 1 hr by flow cytometry analysis. The format is cell-based. Background: Flow cytometry measures light scatter and fluorescence of single cells or particles in a stream.
For experiment [3] the target is unchanged. Briefly: Binding affinity to human A3AR expressed in granulocytes incubated for 1 hr by flow cytometry analysis. The format is cell-based.
The next experiment is filed under the species Homo sapiens. As to the kind of experiment: Selectivity ratio of pKi for human A3AR to pKi for human A1AR.
Experiment [4] has as its target T1, Adenosine receptor A3 (Homo sapiens). Briefly: Binding affinity to human A3AR expressed in CHO cells membrane at 50 nM incubated for 1 hr by SDS-PAGE analysis. The format is cell membranes.

In ChEMBL document CHEMBL5360638, “Development of an Affinity-Based Probe to Profile Endogenous Human Adenosine A3 Receptor Expression” (J Med Chem, 2023) one finds Activity and Ratio pKi data, which are given here for three compounds.

Each structure is given as a SMILES string. Activity calls are given as the source filed them. The calls are words filed in the database; no cut-off is given here.

For the compound `C#CCn1c(=O)c2c(nc3cc(OC)ccn32)n(CCCNC(=O)c2ccc(S(=O)(=O)F)cc2)c1=O`, the outcome in experiment [1] was Active.
As for `C#CCOc1ccn2c(c1)nc1c2c(=O)n(CCC)c(=O)n1CCCNC(=O)c1ccc(S(=O)(=O)F)cc1`, the result in experiment [2], in experiment [1] and in experiment [4] was Active. The outcome in experiment [3] was inactive. Besides, the Ratio pKi in the experiment filed under Homo sapiens was > 17.
As for `C#CCN(CCCn1c(=O)n(CCC)c(=O)c2c1nc1cc(OC)ccn12)C(=O)c1ccc(S(=O)(=O)F)cc1`, the result in experiment [1] was Active. Also, the Ratio pKi in the experiment filed under Homo sapiens is > 100.
